Data: PubChem BioAssay (NCI)
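Five concentrations, 48 hours, 96-well plates. TGI denotes the concentration required for complete inhibition of growth.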

How the values were obtained:
Experiment in all cases: NCI-60 cell line screen, 48 h
EKVX NSCLC = system: EKVX NSCLC
NCI-H23 lung = system: NCI-H23 lung
MDA-MB-231 breast = system: MDA-MB-231 breast
UO-31 renal = system: UO-31 renal
SK-OV-3 ovarian = system: SK-OV-3 ovarian
SK-MEL-2 melanoma = system: SK-MEL-2 melanoma
HS 578T breast = system: HS 578T breast
SF-268 CNS = system: SF-268 CNS
MDA-MB-435 = system: MDA-MB-435
HCT-116 colon = system: HCT-116 colon
SN12C renal = system: SN12C renal

| Compound | TGI (EKVX NSCLC) [µM] | TGI (NCI-H23 lung) [µM] | TGI (MDA-MB-231 breast) [µM] | TGI (UO-31 renal) [µM] | TGI (SK-OV-3 ovarian) [µM] | TGI (SK-MEL-2 melanoma) [µM] | TGI (HS 578T breast) [µM] | TGI (SF-268 CNS) [µM] | TGI (MDA-MB-435) [µM] | TGI (HCT-116 colon) [µM] | TGI (SN12C renal) [µM] |
| --- | --- | --- | --- | --- | --- | --- | --- | --- | --- | --- | --- |
| Clc1ccc2oc(CCc3ccccc3)nc2c1 | > 100 | > 100 | > 100 | > 100 | > 100 | > 100 | > 100 | > 100 | > 100 | > 100 | > 100 |
| CC(C)(C)OC(=O)NCCCCC(N)NC(=O)c1ccccc1 (stereo unspecified) | > 100 | > 100 | > 100 | > 100 | > 100 | > 100 | > 100 | > 100 | > 100 | > 100 | > 100 |
| CC(C)/C(Cl)=N/OC(=O)Nc1ccc(Cl)c(Cl)c1 | 3.95 | 29.5 | 30.2 | 28.6 | 30.7 | 34.1 | 54.5 | 34.8 | 15.7 | 4.65 | 3.42 |
| COc1cc(Oc2nc3ccc(C(F)(F)F)cc3nc2-c2ccccc2)cc(OC)c1OC | > 100 | > 100 | > 100 | > 100 | 33.4 |  | > 100 | 95.2 | > 100 | 31.4 | > 100 |
| O=C1N[C@@H]2C(=C[C@H](O)[C@@H](O)[C@H]2O)c2cc3c(c(O)c21)OCO3 | 0.0743 | 0.129 |  | 0.0955 | 0.246 | 0.0499 |  | 0.116 |  | 0.0569 | 0.122 |
| C=C(C)[C@@H]1CC[C@]2(C(=O)OC)CC[C@]3(C)[C@H](CC[C@@H]4[C@@]5(C)CC[C@H](O)C(C)(C)[C@@H]5CC[C@]43C)[C@@H]12 | 45.1 | > 100 | > 100 | 49.1 |  |  | 56.5 | 67.3 | 42.5 | 37.4 | 35.1 |
| CN(C)CCNC(=O)c1cccc2c(NC(CCC(N)=O)C(=O)O)c3ccccc3nc12 (stereo unspecified) | 53.3 | 18.4 | 24.7 | 7.15 | 54.9 | 25.4 |  | 28.3 | 23.1 | > 100 | 81 |
| COc1cccc(C2c3cc4c(cc3OC3COC(=O)C32)OCO4)c1OC (stereo unspecified) | > 100 |  | > 100 | > 100 | > 100 | > 100 | > 100 | > 100 |  | > 100 | > 100 |
| CSc1c(C#N)c(N)n(-c2ccc(Cl)cc2)c(=O)c1C#N | > 100 | > 100 | > 100 | > 100 | > 100 | > 100 | > 100 | > 100 | > 100 | > 100 | > 100 |
| COc1ccc2c3c1O[C@H](c1ccc(O)cc1)[C@H]3[N+](C)(C)CC2 | > 100 | > 100 | > 100 | > 100 | > 100 | > 100 | > 100 | > 100 | > 100 | > 100 | > 100 |
